Source: paper PMC8385015, “Tumour-on-chip microfluidic platform for assessment of drug pharmacokinetics and treatment response” (Communications Biology, 2021)
Where “and” joins values, the source holds several entries; their conditions need not be identical. Equal values may be shown once.

Columns and labels:
[1] = In vivo PK profile determination in mouse plasma (LC-MS/MS, population-based PK model); conditions: for In vivo drug free concentrations: SN38 after irinotecan 50 mg/kg
Protocol: The samples were collected at 5, 15, 40 min, and 1, 2, 4, 6, 8 and 24 h.
Whole blood was mixed 1:5 with PBS and centrifuged at 1500×g for 3 min at 4 °C, and the plasma was extracted and frozen at –80 °C.
Using this PK model, a time course of free plasma concentrations of both drugs was simulated (Table 1).
Acidified acetonitrile ([…]) was added with the internal standard, followed by centrifugation at 3000 rpm for 10 min. Supernatant ([…]) was then removed to a clean plate and dried under nitrogen. […]
Supplementary Method 8. Pharmacokinetic models parameters used for simulations
AZD156 PK model and PK parameters used for simulations

[2] = system: Ki67; experiment: Ki67 immunofluorescence in SW620 spheroids, microfluidic chip; assay type: cell-based
Description: SN38 is a TOP1 inhibitor that that prevents relegation of the DNA strand by binding to TOP1–DNA complex and causes DNA double strand breaks (DSBs). Those DNA DSB lesions trigger activation of the ATM kinase for effective repair. Inhibition of ATM and consequent accumulation of unrepaired breaks leading to increased cell death provides the rationale for developing this combination for cancer treatment. […] Here, we tested whether different schedules lead to different activation of pharmacodynamic markers that are associated with DNA DSB damage, apoptosis and cell proliferation. The γ-H2AX associated foci accumulate in cells exposed to DBS inducing agents[18],[19]. These foci can be detected by immunostaining to determine their, size and morphology. However, spheroid imaging using a 20x objective on a CV7000 confocal microscope cannot accurately explore foci morphology, so we introduced customised ImageJ macros (described in “Methods” section, Supplementary Fig. 2 and Supplementary Method 1) to quantitate positive cells within a spheroid. The same method was applied to quantitate CC3-positive (apoptotic) cells, while normalisation by spheroid area was not required for Ki67, as this biomarker is present in all proliferating cells. […]
Total Hoechst area represents a parameter used for normalization within biomarker quantitation. […]

[3] = system: SW620 spheroids; experiment: SW620 spheroid size/volume, microfluidic Ibidi chip mimicking mouse PK profile; assay type: cell-based
Protocol: Spheroid images were taken for each experimental endpoint (day 7) using a Leica DMI4000B microscope (Leica Microsystems) with brightfield (BF), phase-contrast and fluorescence filters. Each flow line used two chips, one for viability assays and second for immunofluorescence. Both chips were imaged in BF prior spheroid recovery. Hardware embedded microscope scale has been translated in Fiji ImageJ to evaluate spheroid area/volume. The average size for SW620 spheroids was evaluated by measuring spheroid projection area in bright-field images, based on a macro script designed in an open-source imaging software (Fiji ImageJ) (Supplementary Method 1). Spheroid volume was evaluated following radius deduction from the measured area.

CCc1c2c(nc3ccc(O)cc13)-c1cc3c(c(=O)n1C2)COC(=O)[C@]3(O)CC [SN38]
In vivo drug free concentrations ([1]; mouse plasma, time 1 h): 5.5 nM | In vivo drug free concentrations ([1]; mouse plasma, time 2 h): 4.7 nM | In vivo drug free concentrations ([1]; mouse plasma, time 3 h): 4.4 nM | In vivo drug free concentrations ([1]; mouse plasma, time 4 h): 4.1 nM | In vivo drug free concentrations ([1]; mouse plasma, time 5 h): 3.6 nM | In vivo drug free concentrations ([1]; mouse plasma, time 6 h): 3.1 nM | In vivo drug free concentrations ([1]; mouse plasma, time 7 h): 2.8 nM | In vivo drug free concentrations ([1]; mouse plasma, time 8 h): 2.4 nM | In vivo drug free concentrations ([1]; mouse plasma, time 9 h): 2.1 nM | In vivo drug free concentrations ([1]; mouse plasma, time 10 h): 1.9 nM | In vivo drug free concentrations ([1]; mouse plasma, time 11 h): 1.7 nM | In vivo drug free concentrations ([1]; mouse plasma, time 12 h): 1.6 nM | In vivo drug free concentrations ([1]; mouse plasma, time 13 h): 1.5 nM | In vivo drug free concentrations ([1]; mouse plasma, time 14 h): 1.4 nM | In vivo drug free concentrations ([1]; mouse plasma, time 15 h): 1.2 nM | In vivo drug free concentrations ([1]; mouse plasma, time 16 h): 1.1 nM | In vivo drug free concentrations ([1]; mouse plasma, time 17 h): 1.1 nM | In vivo drug free concentrations ([1]; mouse plasma, time 18 h): 0.9 nM | In vivo drug free concentrations ([1]; mouse plasma, time 19 h): 0.9 nM | In vivo drug free concentrations ([1]; mouse plasma, time 20 h): 0.8 nM | In vivo drug free concentrations ([1]; mouse plasma, time 21 h): 0.7 nM | In vivo drug free concentrations ([1]; mouse plasma, time 22 h): 0.7 nM | In vivo drug free concentrations ([1]; mouse plasma, time 23 h): 0.6 nM | In vivo drug free concentrations ([1]; mouse plasma, time 24 h): 0.6 nM | in vivo average measured concentration ([1]; mouse plasma, between 2-4h from treatment onset): 4.36 nM | Cmax ([1]; read-out: maximum mouse plasma concentration (Cmax), 50 mg/kg irinotecan (SN38), 10 mg/kg AZD0156): 5.5 nM | Ki67 positive area ([2]; Mono SN38, day 7, single spheroids): 3.88E+07 and 4.54E+07 and 3.33E+07 and 4.06E+07 and 4.69E+07 | decrease in proliferation (Ki67) compared to control ([2]; SN38 monotherapy, day 7): about 20% | spheroid size at day 6, fold increase in size over day 1 ([3]; Microfluidic Ibidi chip, PK-profile exposure, 6 days, single spheroids (Fig 2c raw data)): 2.9097 and 2.688 and 2.723 and 2.5658 | spheroid volume as percentage of untreated control ([3]; microfluidic chip, SN38 mono (1d), day 7): 55%
